Data: the supplement of paper PMC4862054

Experiments:
Conditions in all cases: incubation time: 72 h
CAL-85-1 [1] = test: normalised response (% of control), CellTox Green; higher = less cell death (100 = DMSO, 0 = benzethonium chloride kill control)
Summary of the method: (§1)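 Two readouts were taken after 72 h: CellTox Green fluorescence (485/520 nm) first, then CellTiter-Glo luminescence after 10 min at room temperature. Breast cancer cell lines had been seeded as 20 µl suspension into 384-well plates holding compound at 5 concentrations in 10-fold steps across a compound-specific 10,000-fold range. Each value is a normalised signal at a single concentration, with plates scaled to 0.1 % DMSO (100) and a positive kill control (0).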

CAL-120 [2] = test: as above
Summary of the method: as §1

HCC1599 [3] = test: as above
Summary of the method: as §1

MDA-MB-436 [4] = test: as above
Summary of the method: as §1

MCF-10A [5] = test: as above
Summary of the method: as §1

HCC1937 [6] = test: as above
Summary of the method: as §1

BT-474 [7] = test: as above
Summary of the method: as §1

MFM-223 [8] = test: as above
Summary of the method: as §1

HCC1143 [9] = test: as above
Summary of the method: as §1

CAL-148 [10] = test: as above
Summary of the method: as §1

HDQ-P1 [11] = test: as above
Summary of the method: as §1

BT-549 [12] = test: as above
Summary of the method: as §1

CAL-51 [13] = test: as above
Summary of the method: as §1

MDA-MB-453 [14] = test: as above
Summary of the method: as §1

Hs578T [15] = test: as above
Summary of the method: as §1

DU-4475 [16] = test: as above
Summary of the method: as §1

MDA-MB-468 [17] = test: as above
Summary of the method: as §1

MDA-MB-231 [18] = test: as above
Summary of the method: as §1

CAL-85-1 [19] = test: normalised response (% of control), CellTiter-Glo; higher = more viable cells (100 = DMSO, 0 = benzethonium chloride kill control)
Summary of the method: as §1

CAL-120 [20] = test: as above
Summary of the method: as §1

SK-BR-3 = test: as above
Summary of the method: as §1

HCC1599 [21] = test: as above
Summary of the method: as §1

MDA-MB-436 [22] = test: as above
Summary of the method: as §1

MCF-10A [23] = test: as above
Summary of the method: as §1

HCC1937 [24] = test: as above
Summary of the method: as §1

BT-474 [25] = test: as above
Summary of the method: as §1

MFM-223 [26] = test: as above
Summary of the method: as §1

HCC1143 [27] = test: as above
Summary of the method: as §1

CAL-148 [28] = test: as above
Summary of the method: as §1

HDQ-P1 [29] = test: as above
Summary of the method: as §1

BT-549 [30] = test: as above
Summary of the method: as §1

CAL-51 [31] = test: as above
Summary of the method: as §1

MDA-MB-453 [32] = test: as above
Summary of the method: as §1

Hs578T [33] = test: as above
Summary of the method: as §1

DU-4475 [34] = test: as above
Summary of the method: as §1

MDA-MB-468 [35] = test: as above
Summary of the method: as §1

MDA-MB-231 [36] = test: as above
Summary of the method: as §1

Row | Structure (SMILES) | normalised response (CAL-85-1 [1]) | normalised response (CAL-120 [2]) | normalised response (HCC1599 [3]) | normalised response (MDA-MB-436 [4]) | normalised response (MCF-10A [5]) | normalised response (HCC1937 [6]) | normalised response (BT-474 [7]) | normalised response (MFM-223 [8]) | normalised response (HCC1143 [9]) | normalised response (CAL-148 [10]) | normalised response (HDQ-P1 [11]) | normalised response (BT-549 [12]) | normalised response (CAL-51 [13]) | normalised response (MDA-MB-453 [14]) | normalised response (Hs578T [15]) | normalised response (DU-4475 [16]) | normalised response (MDA-MB-468 [17]) | normalised response (MDA-MB-231 [18]) | normalised response (CAL-85-1 [19]) | normalised response (CAL-120 [20]) | normalised response (SK-BR-3) | normalised response (HCC1599 [21]) | normalised response (MDA-MB-436 [22]) | normalised response (MCF-10A [23]) | normalised response (HCC1937 [24]) | normalised response (BT-474 [25]) | normalised response (MFM-223 [26]) | normalised response (HCC1143 [27]) | normalised response (CAL-148 [28]) | normalised response (HDQ-P1 [29]) | normalised response (BT-549 [30]) | normalised response (CAL-51 [31]) | normalised response (MDA-MB-453 [32]) | normalised response (Hs578T [33]) | normalised response (DU-4475 [34]) | normalised response (MDA-MB-468 [35]) | normalised response (MDA-MB-231 [36])
1 | CN(Cc1cnc2nc(N)nc(N)c2n1)c1ccc(C(=O)N[C@@H](CCC(=O)O)C(=O)O)cc1 [Methotrexate] (500 nM) | 98.4% | 100% | 102% | 105% | 96.5% | 112% | 102% | 101% | 114% | 102% | 102% | 99.2% | 104% | 106% | 87.8% | 105% | 118% | 84.1% | 95.6% | 81.8% | 108% | 118% | 91.9% | 104% | 27.3% | 101% | 105% | 96.4% | 106% | 57% | 102% | 95.3% | 110% | 102% | 105% | 101% | 111%
2 | CN(C)C(=N)NC(=N)N [Metformin] (1000 nM) | 97.9% | 96.5% | 95.2% | 71.8% | -3.22% | 93.4% | 92% | 101% | 85.4% | 95.7% | 70.7% | 70.4% | 71.1% | 91% | 105% | 91.6% | 61% | 63.5% | 97.7% | 104% | 81.9% | 95.9% | 108% | 77% | 93.2% | 96.3% | 83.2% | 102% | 102% | 98% | 103% | 65.9% | 84.3% | 102% | 88.4% | 90.3% | 94.1%
